Values joined by “and” are separate entries in the source; they are usually repeats but may differ in a detail not shown here. Equal values may be shown once.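 Tested at 5 concentrations; 48 h exposure; 96-well plates; endpoints linearly interpolated, else capped at highest concentration. Here, GI50 denotes the concentration required for 50% inhibition of growth. TGI marks complete inhibition of growth.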
What was measured:
Assay in all cases: NCI tumour cell line growth inhibition, 48 h
MDA-N = test system: MDA-N
SNB-75 CNS = test system: SNB-75 CNS
EKVX NSCLC = test system: EKVX NSCLC
MDA-MB-231 breast = test system: MDA-MB-231 breast
HT29 colon = test system: HT29 colon
HCC-2998 colon = test system: HCC-2998 colon
OVCAR-5 ovarian = test system: OVCAR-5 ovarian
OVCAR-3 ovarian = test system: OVCAR-3 ovarian
A549 NSCLC = test system: A549 NSCLC
OVCAR-8 ovarian = test system: OVCAR-8 ovarian

SMILES	TGI (MDA-N)	TGI (SNB-75 CNS)	TGI (EKVX NSCLC) [µM]	TGI (MDA-MB-231 breast) [µM]	TGI (HT29 colon)	TGI (HCC-2998 colon)	TGI (OVCAR-5 ovarian)	TGI (OVCAR-3 ovarian)	TGI (A549 NSCLC) [µM]	TGI (OVCAR-8 ovarian)	GI50 (MDA-N) [µM]	GI50 (SNB-75 CNS) [µM]	GI50 (EKVX NSCLC) [µM]	GI50 (MDA-MB-231 breast) [µM]	GI50 (HT29 colon) [µM]	GI50 (HCC-2998 colon) [µM]	GI50 (OVCAR-5 ovarian) [µM]	GI50 (OVCAR-3 ovarian) [µM]	GI50 (OVCAR-8 ovarian) [µM]
COC(=O)[C@H](CCSC)NC(=O)c1ccc(CNC(=O)/C(C)=C/c2ccccc2)cc1	> 100 µM	28.4 µM	> 100	> 100	42.7 µM	83.6 µM	> 100 µM	> 100 µM	> 100	51.4 µM									
COc1ccc(C[C@@H]2OC3(C=CC(=O)C=C3)O[C@H]2Cc2ccc(OC)cc2)cc1	1.62 µM	3.04 µM	3.7	4.15	2.18 µM	2.95 µM	2.05 µM	2.31 µM	11.2	0.645 µM									
CC(=O)C1(O)Cc2c(O)c3c(c(O)c2C(OC2CC(N)C(O)C(C)O2)C1)C(=O)c1ccccc1C3=O (centres undefined)	0.404 µM and 0.211 µM	0.594 µM and 0.103 µM	0.811	1.22	0.432 µM and 0.234 µM	0.257 µM and 0.0758 µM	0.842 µM and 0.23 µM	0.987 µM and 0.475 µM	0.338	0.597 µM and 0.817 µM	0.026	0.0293	0.0826	0.0948	0.0117	0.0198	0.0261	0.0375	0.0147
COc1ccccc1NS(=O)(=O)c1ccc2ncn(NS(=O)(=O)c3ccc(Cl)cc3)c(=O)c2c1	> 100 µM	> 100 µM	> 100	> 100	> 100 µM	> 100 µM	> 100 µM	> 100 µM	> 100	> 100 µM									
CCCC1(N)CC(OC)OC(C)C1O (centres undefined)	> 100 µM	> 100 µM	> 100	> 100	> 100 µM	> 100 µM	> 100 µM	> 100 µM	> 100	> 100 µM									
CC1=CC(=O)/C(=C/n2c(=S)[nH]c3ccccc32)C(=O)O1	> 100 µM	> 100 µM	> 100	> 100	> 100 µM	> 100 µM	> 100 µM	> 100 µM	> 100	> 100 µM									
CC1CN=C(c2ccc(COc3ccc(C4=NCC(C)N4)cc3)cc2)N1 (centres undefined)	> 100 µM	64.4 µM	> 100	> 100	> 100 µM	> 100 µM	> 100 µM	> 100 µM	> 100	> 100 µM									
C=C1c2nc3ccccc3n2C=C(c2ccc(OC)cc2)N1c1ccc(OCCN2CCOCC2)cc1	> 100 µM	> 100 µM	> 100	> 100	> 100 µM	> 100 µM	> 100 µM	> 100 µM	> 100	> 100 µM									
CC[C@H](C)C1=C(OC(C)=O)[N@+]2([O-])Oc3ccc(-c4c(OC(C)=O)c(OC(C)=O)c(-c5ccc(OC(C)=O)cc5)c(OC(C)=O)c4OC(C)=O)cc3O[C@]2([C@@H](C)CC)C(=O)N1OC(C)=O	> 50 µM	39.5 µM	22.5	> 50	> 50 µM	0.031 µM	> 50 µM	23.4 µM	41.6	37.6 µM									
CC(=O)N(CN1C(=O)CCC1C(=O)O)c1ccccc1Cl (centres undefined)	> 100 µM	> 100 µM	> 100	> 100	> 100 µM	> 100 µM	> 100 µM	> 100 µM	> 100	> 100 µM									
CN1C(=O)N(C)C2(CCN(CCCCCCF)CC2)C1=O	> 100 µM	> 100 µM	> 100	> 100	> 100 µM	> 100 µM	> 100 µM	> 100 µM	> 100	> 100 µM									
NCCCC[C@H](N)C(=O)Nc1ccc(-c2nc3ccccc3s2)cc1Cl	9.36 µM	26.8 µM	19.6	26.6	18.1 µM	> 38.4 µM	17.8 µM	19.2 µM	9.08	> 43.9 µM									
C=CCC(CNC(=O)OCc1ccccc1)OC(=O)OCc1ccccc1 (centres undefined)	> 100 µM	> 100 µM	> 100	> 100	> 100 µM	> 100 µM	> 100 µM	> 100 µM	> 100	> 100 µM									
CC(/C=N/NC1=NCCCN1)=N\NC1=NCCCN1	> 100 µM	> 100 µM	> 100	> 100	> 100 µM	> 100 µM	> 100 µM	> 100 µM	> 100	> 100 µM									
O=[N+]([O-])c1cc(Cl)ccc1S(=O)(=O)N1CCCc2cc(Cl)ccc21	> 100 µM	> 100 µM	> 100	> 100	> 100 µM	> 100 µM	> 100 µM	> 100 µM	> 100	> 100 µM									
CCCCNC(=S)Nc1nc(C(=O)NNC(=O)c2ccccc2)cs1	39.4 µM	72.7 µM	> 100	29	> 100 µM	27.5 µM	35 µM	19.7 µM	55.2	66.9 µM									
CCOP(=O)(OCC)C(C)(C)OC(=O)NC#N	> 100 µM	> 100 µM	> 100	> 100	> 100 µM	> 100 µM	> 100 µM	> 100 µM	> 100	> 100 µM									
O=C(O)CC(O)(C(=O)O)C(O)C(=O)O (centres undefined)	> 1000 µM	> 1000 µM	> 1000	> 1000	> 1000 µM	> 1000 µM	> 1000 µM	> 1000 µM	> 1000	> 1000 µM									
CCCCCCCCCCCCCCCCP(=O)([O-])OCC[N+](C)(C)C	30 µM	29 µM	39.1	35.2	25.5 µM	22 µM	21.8 µM	31.6 µM	32.9	32.7 µM									
O=C(Oc1cccc(Cl)c1)c1cc2cc(CCl)ccc2oc1=O	> 100 µM	> 100 µM	> 100	> 100	> 100 µM	34.4 µM	> 100 µM	> 100 µM	> 100	> 100 µM									
COC(=O)C(Cc1nc2ccccc2[nH]c1=O)C(=O)C(=O)Nc1cc(C(F)(F)F)ccc1Cl (centres undefined)	> 100 µM	46.1 µM	39	52.5	28.6 µM	26.4 µM	33.5 µM	25.4 µM	> 100	30 µM									
COc1cccc(-c2cc(=O)c3cc(Cl)cnc3[nH]2)c1	0.0239 µM	> 100 µM	> 100	> 65.5	13.8 µM	3.83 µM	> 100 µM	> 43 µM	31.6	43.9 µM									
C=CCN1CCC2(CC1)NC(=O)c1ccccc1O2	> 100 µM	> 100 µM	> 100	> 100	> 100 µM	> 100 µM	> 100 µM	> 100 µM	> 100	> 100 µM									
CCOP(=O)(OCC)C(Nc1ccc(F)cc1)c1ccccc1 (centres undefined)	> 100 µM	> 100 µM	> 100	> 100	> 100 µM	> 100 µM	> 100 µM	> 100 µM	> 100	> 100 µM									
CN(C)CCNc1nc2c(no[n+]2[O-])c2ccccc12	91.4 µM	52.4 µM	73.9	34.3	> 100 µM	59.2 µM	> 100 µM	71.7 µM	33.5	32.8 µM									
CCN(CC)CCC(=O)c1ccc(Oc2ccc(F)cc2)cc1	31.9 µM	47.8 µM	39.4	31.2	38.6 µM	37.1 µM	35 µM	34.5 µM	> 100	57.6 µM									
CN(C)c1ccc(/C=c2/c3cc([N+](=O)[O-])ccc3n3c2cc(-c2ccccc2)[n+]3C)cc1	1.66 µM	3.79 µM	7.81	2.75	6.76 µM	7.55 µM	10.8 µM	5.48 µM	11.7	27.7 µM									
Nc1ccc(-c2nc3ccccc3s2)cc1Br	> 100 µM	> 86.4 µM	> 100	> 100	> 100 µM	> 100 µM	> 100 µM	> 100 µM	> 100	> 100 µM									

From PubChem BioAssay (NCI)
